Laboratory results as given in patent US20140249490A1, “Methods for Prevention and/or Treatment of Capsular Contracture” (J&E SOLUTIONS, LLC, priority 2013, published 2014).

Test system: capsular contracture
Assay: Clinical cases: topical treatment of breast capsular contracture, Baker grading
Format: in vivo, human
Settings: Patient #1; bilateral Grade 3 capsular contracture, after first revision; given together with massage
Excerpt: Wash and dry the affected area (that is, the skin surrounding the implant or the skin over the capsular contracture) prior to use. Apply the composition daily (use sparingly) with vigorous massage to affected area. If necessary, exert compression or pressure when massaging to break up existing capsule. Enhanced absorption is obtained with application of the composition following a hot shower. Occlusive dressing (hydrogel), or tight clothing (sports bras), will also enhance the result. Continued daily use will yield optimal results. […] Optimal results are best maintained with daily continued application. One particularly useful embodiment of the invention involves the use of the topical compositions for the treatment/prevention of capsular contracture in breast surgery (e.g., breast implants). There are four grades of breast capsular contracture—Baker grades I through IV. The Baker grading is as follows: Grade 1—the breast is normally soft and looks natural Grade II—the breast is a little firm but looks normal Grade III—the breast is firm and looks abnormal Grade IV—the breast is hard, painful, and looks abnormal. of developed or is at risk of developing capsular contracture a topical composition.

COc1ccc2cc([C@H](C)C(=O)O)ccc2c1 [Aleve, naproxen sodium]
response of capsular contracture to treatment: without result
